Reference: patent publication US20200121684A1, “MODULATORS OF BTK PROTEOLYSIS AND METHODS OF USE” (Yale University, priority 2018, published 2020)
Read-outs that look alike come from different tables or passages of the source. One block for each compound: values may come before it.

Key:
HER3 = biological target: T1, HER3 (Homo sapiens, UniProt P21860); experiment: HER3 (ERBB3) degradation, immunoblot; assay type: cell-based; conditions: Table 5
T1 construct: endogenous in cells

[1] = Pharmacokinetics after IV compound administration in mice; assay type: in vivo; conditions: for pharmacokinetic profile relative to COMPOUND 102: IV mice; for Clearance (Cl) / Half Life (t1/2) / Cmax / AUC(0-t): IV mice (1 mg/Kg); for Cmax: Tmax 0.033 h; for AUC(0-t): mouse, in vivo, read-out: Exposure (AUClast)
BTK = biological target: T2, BTK (Homo sapiens, UniProt Q06187); experiment: BTK degradation in NAMALWA cells, immunoblot; assay type: cell-based
T2 construct: host or cells: NAMALWA
T2 sequence (Q06187 whole entry): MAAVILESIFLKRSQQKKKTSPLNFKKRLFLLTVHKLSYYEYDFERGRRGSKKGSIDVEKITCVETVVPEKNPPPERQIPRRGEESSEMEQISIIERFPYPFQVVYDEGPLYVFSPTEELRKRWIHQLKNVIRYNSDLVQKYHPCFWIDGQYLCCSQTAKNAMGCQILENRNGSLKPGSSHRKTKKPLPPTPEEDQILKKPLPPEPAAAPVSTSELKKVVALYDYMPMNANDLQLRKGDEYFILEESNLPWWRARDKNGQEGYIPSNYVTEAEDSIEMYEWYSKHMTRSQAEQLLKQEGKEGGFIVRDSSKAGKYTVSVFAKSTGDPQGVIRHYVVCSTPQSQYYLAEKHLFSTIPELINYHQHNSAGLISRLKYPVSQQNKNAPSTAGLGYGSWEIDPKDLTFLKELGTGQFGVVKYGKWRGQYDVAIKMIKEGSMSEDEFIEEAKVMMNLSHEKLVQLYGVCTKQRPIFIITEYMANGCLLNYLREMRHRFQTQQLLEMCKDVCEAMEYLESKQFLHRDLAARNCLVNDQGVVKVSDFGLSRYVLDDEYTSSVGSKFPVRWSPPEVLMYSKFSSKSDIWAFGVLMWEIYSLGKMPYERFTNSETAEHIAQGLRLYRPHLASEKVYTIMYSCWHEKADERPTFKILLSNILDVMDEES

T1 sequence (P21860 20-1342): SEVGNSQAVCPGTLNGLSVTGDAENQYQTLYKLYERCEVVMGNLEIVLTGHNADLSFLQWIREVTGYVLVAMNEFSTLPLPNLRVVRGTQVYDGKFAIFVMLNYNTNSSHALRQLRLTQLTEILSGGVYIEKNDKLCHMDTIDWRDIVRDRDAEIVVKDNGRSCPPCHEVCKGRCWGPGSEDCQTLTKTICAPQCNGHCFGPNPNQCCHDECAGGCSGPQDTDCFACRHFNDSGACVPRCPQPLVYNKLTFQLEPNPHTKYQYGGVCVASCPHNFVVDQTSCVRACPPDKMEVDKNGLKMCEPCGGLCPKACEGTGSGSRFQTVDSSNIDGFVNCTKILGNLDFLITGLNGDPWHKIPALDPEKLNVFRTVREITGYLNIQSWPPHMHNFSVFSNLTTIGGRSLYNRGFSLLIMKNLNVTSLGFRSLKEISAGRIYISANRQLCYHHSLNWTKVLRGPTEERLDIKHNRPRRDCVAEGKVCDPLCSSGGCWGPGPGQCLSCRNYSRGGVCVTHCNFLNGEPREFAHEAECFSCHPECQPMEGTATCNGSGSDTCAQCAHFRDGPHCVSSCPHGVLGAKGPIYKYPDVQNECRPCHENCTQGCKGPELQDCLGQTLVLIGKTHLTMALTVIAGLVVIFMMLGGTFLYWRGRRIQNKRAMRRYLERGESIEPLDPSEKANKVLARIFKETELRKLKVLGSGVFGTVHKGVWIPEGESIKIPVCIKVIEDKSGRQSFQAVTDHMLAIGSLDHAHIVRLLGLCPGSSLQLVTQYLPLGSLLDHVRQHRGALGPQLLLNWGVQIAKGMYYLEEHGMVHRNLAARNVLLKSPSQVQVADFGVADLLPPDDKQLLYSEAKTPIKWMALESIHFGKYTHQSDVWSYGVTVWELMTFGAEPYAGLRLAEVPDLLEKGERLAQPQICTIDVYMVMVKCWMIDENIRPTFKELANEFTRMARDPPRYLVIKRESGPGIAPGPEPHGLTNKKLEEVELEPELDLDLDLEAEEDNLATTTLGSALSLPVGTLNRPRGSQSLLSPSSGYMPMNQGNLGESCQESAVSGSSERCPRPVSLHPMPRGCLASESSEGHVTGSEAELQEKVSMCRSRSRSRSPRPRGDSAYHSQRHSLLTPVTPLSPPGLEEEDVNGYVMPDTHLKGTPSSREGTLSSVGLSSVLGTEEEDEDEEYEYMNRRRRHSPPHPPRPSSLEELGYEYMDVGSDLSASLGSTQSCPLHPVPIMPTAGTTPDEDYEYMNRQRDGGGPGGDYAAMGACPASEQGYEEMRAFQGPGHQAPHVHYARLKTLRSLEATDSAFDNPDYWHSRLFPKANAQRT

SMILES: Nc1ncnc2c1c(-c1ccc(Oc3ccccc3)cc1)nn2C1CCN(CCCCOCCCCOCC(=O)Nc2ccc3c(c2)C(=O)N(C2CCC(=O)NC2=O)C3=O)CC1 (stereo not drawn) [Compound 105, 2-[4-[4-[4-[4-amino-3-(4-phenoxyphenyl)pyrazolo[3,4-d]pyrimidin-1-yl]-1-piperidyl]butoxy]butoxy]-N-[2-(2,6-dioxo-3-piperidyl)-1,3-dioxo-isoindolin-5-yl]acetamide]
- HER3 Degradation (HER3): No

- HER3 Degradation (HER3): No
SMILES: Nc1ncnc2c1c(-c1ccc(Oc3ccccc3)cc1)nn2C1CCN(CCCCCCOCCCCCCOCC(=O)Nc2cccc3c2C(=O)N(C2CCC(=O)NC2=O)C3=O)CC1 (stereo not drawn) [Compound 107, 2-(6-(6-(4-(4-amino-3-(4-phenoxyphenyl)-1H-pyrazolo[3,4-d]pyrimidin-1-yl)piperidin-1-yl)hexyloxy)hexyloxy)-N-(2-(2,6-dioxopiperidin-3-yl)-1,3-dioxoisoindolin-4-yl)acetamide]

- Clearance (Cl) [1]: 102 mL/min/kg
- Half Life (t1/2) [1]: 1.62 h
- Cmax [1]: 831 ng/mL
- AUC(0-t) [1]: 166 ng·h/mL
- DC50 (BTK; Table 5, NAMALWA cells): 11 nM
- DC50 (BTK; Table 6, in NAMALWA cells line): 11 nM
- Dmax (BTK; Table 6, in NAMALWA cells line, read-out: Dmax): > 99%
SMILES: Nc1ncnc2c1c(-c1ccc(Oc3ccccc3)cc1)nn2C1CCN(CCOCCOCCOc2ccc3c(c2)C(=O)N(C2CCC(=O)NC2=O)C3=O)CC1 (stereo not drawn) [COMPOUND 131, 5-(2-(2-(2-(4-(4-amino-3-(4-phenoxyphenyl)-1H-pyrazolo[3,4-d]pyrimidin-1-yl)piperidin-1-yl)ethoxy)ethoxy)ethoxy)-2-(2,6-dioxopiperidin-3-yl)isoindoline-1,3-dione]
- pharmacokinetic profile relative to COMPOUND 102 [1]: superior pharmacokinetic profiles relative to COMPOUND 102
- degradation potency/profile compared with COMPOUND 102 (BTK; NAMALWA cells): similarly potent degradation profile as COMPOUND 102

- HER3 Degradation (HER3): No
SMILES: Cc1ncsc1-c1ccc(CNC(=O)[C@@H]2C[C@@H](O)CN2C(=O)[C@@H](NC(=O)COCCOCCOCCOCCCCCCN2CCC(n3nc(-c4ccc(Oc5ccccc5)cc4)c4c(N)ncnc43)CC2)C(C)(C)C)cc1 [Compound 115, (2S,4R)-1-((S)-22-(4-(4-amino-3-(4-phenoxyphenyl)-1H-pyrazolo[3,4-d]pyrimidin-1-yl)piperidin-1-yl)-2,2-dimethyl-5-oxo-7,10,13,16-tetraoxa-4-azadocosanecarbonyl)-4-hydroxy-N-(4-(4-methylthiazol-5-yl)benzyl)pyrrolidine-2-carboxamide]

- Clearance (Cl) [1]: 40.8 mL/min/kg
- Half Life (t1/2) [1]: 1.64 h
- Cmax [1]: 2100 ng/mL
- AUC(0-t) [1]: 405 ng·h/mL
- degradation potency/profile compared with COMPOUND 102 (BTK; NAMALWA cells): similarly potent to COMPOUND 102
- Dmax (BTK; NAMALWA cells, read-out: Dmax): > 99%
- DC50 (BTK; Table 5, NAMALWA cells): 8 nM
- DC50 (BTK; Table 6, in NAMALWA cells line): 8 nM
- Dmax (BTK; Table 6, in NAMALWA cells line): >99%
SMILES: Nc1ncnc2c1c(-c1ccc(Oc3ccccc3)cc1)nn2C1CCN(CCOCCOCCOc2ccc3c(c2)CN(C2CCC(=O)NC2=O)C3=O)CC1 (stereo not drawn) [COMPOUND 135, 3-(5-(2-(2-(2-(4-(4-amino-3-(4-phenoxyphenyl)-1H-pyrazolo[3,4-d]pyrimidin-1-yl)piperidin-1-yl)ethoxy)ethoxy)ethoxy)-1-oxoisoindolin-2-yl)piperidine-2,6-dione]
- pharmacokinetic profile relative to COMPOUND 102 [1]: superior pharmacokinetic profiles relative to COMPOUND 102

- HER3 Degradation (HER3): No
SMILES: Nc1ncnc2c1c(-c1ccc(Oc3ccccc3)cc1)nn2C1CCN(CCCOCCCOCCC(=O)Nc2cccc3c2C(=O)N(C2CCC(=O)NC2=O)C3=O)CC1 (stereo not drawn) [Compound 103, 3-(3-(3-(4-(4-amino-3-(4-phenoxyphenyl)-1H-pyrazolo[3,4-d]pyrimidin-1-yl)piperidin-1-yl)propoxy)propoxy)-N-(2-(2,6-dioxopiperidin-3-yl)-1,3-dioxoisoindolin-4-yl)propanamide]

- ability to degrade BTK (BTK; NAMALWA cells): inability to degrade BTK
SMILES: Nc1ncnc2c1c(-c1ccc(Oc3ccccc3)cc1)nn2C1CCN(CCOCC(=O)Nc2cccc3c2C(=O)N(C2CCC(=O)NC2=O)C3=O)CC1 (stereo not drawn) [Compound 100, 2-(2-(4-(4-amino-3-(4-phenoxyphenyl)-1H-pyrazolo[3,4-d]pyrimidin-1-yl)piperidin-1-yl)ethoxy)-N-(2-(2,6-dioxopiperidin-3-yl)-1,3-dioxoisoindolin-4-yl)acetamide]

- ability to degrade BTK (BTK; NAMALWA cells): inability to degrade BTK
SMILES: Nc1ncnc2c1c(-c1ccc(Oc3ccccc3)cc1)nn2C1CCN(CCOCCOCC(=O)Nc2cccc3c2C(=O)N(C2CCC(=O)NC2=O)C3=O)CC1 (stereo not drawn) [Compound 101, 2-(2-(2-(4-(4-amino-3-(4-phenoxyphenyl)-1H-pyrazolo[3,4-d]pyrimidin-1-yl)piperidin-1-yl)ethoxy)ethoxy)-N-(2-(2,6-dioxopiperidin-3-yl)-1,3-dioxoisoindolin-4-yl)acetamide]

SMILES: Cc1ncsc1-c1ccc(CNC(=O)[C@@H]2C[C@@H](O)CN2C(=O)[C@@H](NC(=O)COCCOCCN2CCC(n3nc(-c4ccc(Oc5ccccc5)cc4)c4c(N)ncnc43)CC2)C(C)(C)C)cc1 [Compound 129, (2S,4R)-1-((S)-2-(2-(2-(2-(4-(4-amino-3-(4-phenoxyphenyl)-1H-pyrazolo[3,4-d]pyrimidin-1-yl)piperidin-1-yl)ethoxy)ethoxy)acetamido)-3,3-dimethylbutanoyl)-4-hydroxy-N-(4-(4-methylthiazol-5-yl)benzyl)pyrrolidine-2-carboxamide]
- Dmax (BTK; NAMALWA cells, read-out: Dmax): < 50%
- DC50 (BTK; Table 5, NAMALWA cells): > 1000 nM
- Max (BTK; Table 5, at 2.5 μM): 49%
- DC50 (BTK; Table 6, in NAMALWA cells line): > 1000 nM
- Dmax (BTK; Table 6, in NAMALWA cells line): <50%

SMILES: Cc1ncsc1-c1ccc(CNC(=O)[C@@H]2C[C@@H](O)CN2C(=O)[C@H](C(C)C)N2Cc3ccccc3C2=O)c(OCCCOCCC(=O)N2CCC(n3nc(-c4ccc(Oc5ccccc5)cc4)c4c(N)ncnc43)CC2)c1 [Compound 128, (2S,4R)—N-(2-(3-(3-(4-(4-amino-3-(4-phenoxyphenyl)-1H-pyrazolo[3,4-d]pyrimidin-1-yl)piperidin-1-yl)-3-oxopropoxy)propoxy)-4-(4-methylthiazol-5-yl)benzyl)-4-hydroxy-1-((S)-3-methyl-2-(1-oxoisoindolin-2-yl)butanoyl)pyrrolidine-2-carboxamide]
- Dmax (BTK; NAMALWA cells, read-out: Dmax): < 50%
- DC50 (BTK; Table 6, in NAMALWA cells line): > 1000 nM
- Dmax (BTK; Table 6, in NAMALWA cells line): <50%

SMILES: CN1C(=O)CCC(N2C(=O)c3ccc(NC(=O)COCCOCCN4CCC(n5nc(-c6ccc(Oc7ccccc7)cc6)c6c(N)ncnc65)CC4)cc3C2=O)C1=O (stereo not drawn) [Compound 130, 2-(2-(2-(4-(4-amino-3-(4-phenoxyphenyl)-1H-pyrazolo[3,4-d]pyrimidin-1-yl)piperidin-1-yl)ethoxy)ethoxy)-N-(2-(1-methyl-2,6-dioxopiperidin-3-yl)-1,3-dioxoisoindolin-5-yl)acetamide]
- ability to degrade BTK (BTK; NAMALWA cells): neither ibrutinib nor Compound 130 were able to induce degradation of BTK

- HER3 Degradation (HER3): No
SMILES: Cc1ncsc1-c1ccc(CNC(=O)[C@@H]2C[C@@H](O)CN2C(=O)[C@@H](NC(=O)COCCCCCOCCCCCCN2CCC(n3nc(-c4ccc(Oc5ccccc5)cc4)c4c(N)ncnc43)CC2)C(C)(C)C)cc1 [Compound 111, (2S,4R)-1-((S)-2-(2-(5-(6-(4-(4-amino-3-(4-phenoxyphenyl)-1H-pyrazolo[3,4-d]pyrimidin-1-yl)piperidin-1-yl)hexyloxy)pentyloxy)acetamido)-3,3-dimethylbutanoyl)-4-hydroxy-N-(4-(4-methylthiazol-5-yl)benzyl)pyrrolidine-2-carboxainide]

- HER3 Degradation (HER3): No
SMILES: Cc1ncsc1-c1ccc(CNC(=O)[C@@H]2C[C@@H](O)CN2C(=O)[C@@H](NC(=O)COCCOCCOCCOCCN2CCN(C3CCC(n4nc(-c5ccc(Oc6ccccc6)cc5)c5c(N)ncnc54)CC3)CC2)C(C)(C)C)cc1 (stereo partly drawn) [Compound 114, (2S,4R)-1-((S)-17-(4-(4-(4-amino-3-(4-phenoxyphenyl)-1H-pyrazolo[3,4-d]pyrimidin-1-yl)cyclohexyl)piperazin-1-yl)-2-tert-butyl-4-oxo-6,9,12,15-tetraoxa-3-azaheptadecane)-4-hydroxy-N-(4-(4-methylthiazol-5-yl)benzyl)pyrrolidine-2-carboxamide]

- HER3 Degradation (HER3): No
SMILES: Cc1ncsc1-c1ccc(CNC(=O)[C@@H]2C[C@@H](O)CN2C(=O)[C@@H](NC(=O)COCCOCCOCCOCCCCN2CCC(n3nc(-c4ccc(Oc5ccccc5)cc4)c4c(N)ncnc43)CC2)C(C)(C)C)cc1 [Compound 113, (2S,4R)-1-((S)-19-(4-(4-amino-3-(4-phenoxyphenyl)-1H-pyrazolo[3,4-d]pyrimidin-1-yl)piperidin-1-yl)-2-tert-butyl-4-oxo-6,9,12,15-tetraoxa-3-azanonadecane)-4-hydroxy-N-(4-(4-methylthiazol-5-yl)benzyl)pyrrolidine-2-carboxamide]

- HER3 Degradation (HER3): No
SMILES: Cc1ncsc1-c1ccc(CNC(=O)[C@@H]2C[C@@H](O)CN2C(=O)[C@@H](NC(=O)COCCOCCOCCOCCN2CCC(n3nc(-c4ccc(Oc5ccccc5)cc4)c4c(N)ncnc43)CC2)C(C)(C)C)cc1 [Compound 109, (2S,4R)-1-((S)-17-(4-(4-amino-3-(4-phenoxyphenyl)-1H-pyrazolo[3,4-d]pyrimidin-1-yl)piperidin-1-yl)-2-tert-butyl-4-oxo-6,9,12,15-tetraoxa-3-azaheptadecane)-4-hydroxy-N-(4-(4-methylthiazol-5-yl)benzyl)pyrrolidine-2-carboxamide]

SMILES: Cc1ncsc1-c1ccc(CNC(=O)[C@@H]2C[C@@H](O)CN2C(=O)[C@H](C(C)C)N2Cc3ccccc3C2=O)c(OCCCCOCCCCN2CCC(n3nc(-c4ccc(Oc5ccccc5)cc4)c4c(N)ncnc43)CC2)c1 [Compound 127, (2S,4R)—N-(2-(4-(4-(4-(4-amino-3-(4-phenoxyphenyl)-1H-pyrazolo[3,4-d]pyrimidin-1-yl)piperidin-1-yl)butoxy)butoxy)-4-(4-methylthiazol-5-yl)benzyl)-4-hydroxy-1-((S)-3-methyl-2-(1-oxoisoindolin-2-yl)butanoyl)pyrrolidine-2-carboxamide]
- Dmax (BTK; NAMALWA cells, read-out: Dmax): < 50%
- DC50 (BTK; Table 5, NAMALWA cells): > 1000 nM
- DC50 (BTK; Table 6, in NAMALWA cells line): > 1000 nM
- Dmax (BTK; Table 6, in NAMALWA cells line): <50%
